Drawing on PubChem BioAssay AID256 (DTP/NCI, 2004), this text covers T/C for 20 compounds.

Structures are written as SMILES. Several values for one entry are separate records, joined by “and”; a condition that tells them apart may be missing. Equal values may be shown once. Inconclusive results and toxic doses are left out.

The assay has as its system CD2F1 mice, L1210 leukemia ip, survival T/C. The assay is described as follows: NCI In Vivo Anticancer Drug Screen. Data for tumor model L1210 Leukemia (intraperitoneal) in CD2F1 (CDF1) mice. Particulars: endpoint: mean survival time, higher = longer survival. An outline of the steps:
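Compound-dosed mice with transplantable tumor versus matched vehicle controls; endpoint ratio T/C reported.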

Where [1] appears, read: dose: 100.0 mg/kg/injection, schedule: Q01DX009 (ip), vehicle: saline with Tween-80.
The mark [2] stands for this setting: dose: 200.0 mg/kg/injection, schedule: Q01DX009 (ip), vehicle: saline with Tween-80.
Setting [3] is: dose: 200.0 mg/kg/injection, schedule: Q04DX003 (ip), vehicle: saline with Tween-80.
[4] abbreviates: dose: 400.0 mg/kg/injection, schedule: Q01DX009 (ip), vehicle: saline with Tween-80.
Where [5] appears, read: dose: 400.0 mg/kg/injection, schedule: Q04DX003 (ip), vehicle: saline with Tween-80.
The mark [6] stands for this setting: dose: 50.0 mg/kg/injection, schedule: Q01DX009 (ip), vehicle: saline with Tween-80.
[7] abbreviates: dose: 100.0 mg/kg/injection, schedule: Q04DX003 (ip), vehicle: saline with Tween-80.
Where [8] appears, read: dose: 100.0 mg/kg/injection, schedule: Q01DX001 (ip), vehicle: saline with Tween-80.
[9] abbreviates: dose: 100.0 mg/kg/injection, schedule: Q01DX001 (ip), vehicle: saline.
Where [10] appears, read: dose: 200.0 mg/kg/injection, schedule: Q01DX001 (ip), vehicle: saline.
The mark [11] stands for this setting: dose: 400.0 mg/kg/injection, schedule: Q01DX001 (ip), vehicle: saline.

For the compound `OCCOCCN1CCN(CC/C=C2\c3ccccc3Sc3ccc(C(F)(F)F)cc32)CC1`, the T/C by setting is: (dose: 0.75 mg/kg/injection, schedule: Q01DX009 (ip), vehicle: saline) 87 % of control; (dose: 1.5 mg/kg/injection, schedule: Q01DX009 (ip), vehicle: saline) 94 % of control; (dose: 3.0 mg/kg/injection, schedule: Q01DX009 (ip), vehicle: saline) 100 % of control; (dose: 6.25 mg/kg/injection, schedule: Q04DX003 (ip), vehicle: saline) 103 % of control; (dose: 8.0 mg/kg/injection, schedule: Q04DX003 (ip), vehicle: saline with Tween-80) 115 % of control; (dose: 12.0 mg/kg/injection, schedule: Q04DX003 (ip), vehicle: saline with Tween-80) 116 % of control. The T/C by setting is: (dose: 25.0 mg/kg/injection, schedule: Q04DX003 (ip), vehicle: saline) 97 % of control; (dose: 50.0 mg/kg/injection, schedule: Q04DX003 (ip), vehicle: saline) 111 % of control; (dose: 100.0 mg/kg/injection, schedule: Q04DX003 (ip), vehicle: saline) 93 % of control.

Consider `ONc1nc(NO)c2[nH]cnc2n1`, for which the T/C (dose: 2.3 mg/kg/injection, schedule: Q01DX001 (ip), vehicle: other) is 124 % of control; the T/C (dose: 3.5 mg/kg/injection, schedule: Q01DX001 (ip), vehicle: other) was 122 % of control; the T/C (dose: 8.0 mg/kg/injection, schedule: Q01DX001 (ip), vehicle: other) was 160 % of control and 168 % of control; the T/C (dose: 12.5 mg/kg/injection, schedule: Q01DX001 (ip), vehicle: other) was 153 % of control; the T/C (dose: 29.0 mg/kg/injection, schedule: Q01DX001 (ip), vehicle: other) was 156 % of control; the T/C (dose: 44.0 mg/kg/injection, schedule: Q01DX001 (ip), vehicle: other) was 153 % of control and 172 % of control. The T/C runs as follows: (dose: 66.0 mg/kg/injection, schedule: Q01DX001 (ip), vehicle: other) 190 % of control; (dose: 100.0 mg/kg/injection, schedule: Q01DX001 (ip), vehicle: other) 202 % of control; (dose: 150.0 mg/kg/injection, schedule: Q01DX001 (ip), vehicle: other) 182 % of control.

Consider `Cc1cc(C)c(B(c2c(C)cc(C)cc2C)c2c(C)cc(C)cc2C)c(C)c1`, for which the T/C runs as follows: under setting [1], 100 % of control; under setting [2], 94 % of control; under setting [3], 90 % of control; under setting [4], 94 % of control; under setting [5], 96 % of control.

For the compound `O=C(O)/C=C/C(=O)NNC(=O)/C=C/C(=O)O`, the T/C was 94 % of control under setting [6], 96 % of control under setting [1] and 91 % of control under setting [2].

On to `Cc1ccc(S(=O)(=O)Nc2ccc(I)cc2)cc1`, for which the T/C is 94 % of control under setting [6]; 97 % of control under setting [1]; 92 % of control under setting [7]; 95 % of control under setting [2]; 94 % of control under setting [3]; 86 % of control under setting [5].

In the case of `O=S(=O)(O)O.[Fe]`, the T/C (dose: 50.0 mg/kg/injection, schedule: Q01DX009 (ip), vehicle: saline sonified) is 86 % of control; the T/C under setting [7] was 96 % of control; the T/C under setting [3] is 88 % of control.

`CC1(C)CCC(CC(=O)O)(CC(=O)O)CC1`: the T/C under setting [1] is 105 % of control, the T/C under setting [2] was 104 % of control and the T/C under setting [4] was 104 % of control.

In the case of `NC(=S)N/N=C1/CCN2CCCc3cccc1c32`, the T/C is, setting by setting: (dose: 5.0 mg/kg/injection, schedule: Q01DX001 (ip), vehicle: saline with Tween-80) 98 % of control; (dose: 10.0 mg/kg/injection, schedule: Q01DX001 (ip), vehicle: saline with Tween-80) 97 % of control; (dose: 20.0 mg/kg/injection, schedule: Q01DX001 (ip), vehicle: saline with Tween-80) 98 % of control.

`CCC(=O)OC1(c2ccccc2)CCN(CCCc2ccccc2Cl)CC1`: the T/C runs as follows: (dose: 25.0 mg/kg/injection, schedule: Q01DX001 (ip), vehicle: saline with Tween-80) 108 % of control; (dose: 25.0 mg/kg/injection, schedule: Q04DX002 (ip), vehicle: saline with Tween-80) 95 % of control; (dose: 50.0 mg/kg/injection, schedule: Q01DX001 (ip), vehicle: saline with Tween-80) 100 % of control; (dose: 50.0 mg/kg/injection, schedule: Q04DX002 (ip), vehicle: saline with Tween-80) 98 % of control; under setting [8], 96 % of control and 98 % of control; (dose: 100.0 mg/kg/injection, schedule: Q04DX002 (ip), vehicle: saline with Tween-80) 95 % of control.

Take `C1CCC(C2CCCC[N-]2)[N-]C1.C1CCC(C2CCCC[N-]2)[N-]C1.O=C(O)C(=O)O.[Ru+4]` (stereo unspecified): the T/C (dose: 3.13 mg/kg/injection, schedule: Q04DX003 (ip), vehicle: water) was 101 % of control; the T/C (dose: 6.25 mg/kg/injection, schedule: Q04DX003 (ip), vehicle: water) was 93 % of control; the T/C (dose: 12.5 mg/kg/injection, schedule: Q04DX003 (ip), vehicle: water) was 96 % of control; the T/C (dose: 25.0 mg/kg/injection, schedule: Q04DX003 (ip), vehicle: water) is 93 % of control; the T/C (dose: 50.0 mg/kg/injection, schedule: Q04DX003 (ip), vehicle: water) was 93 % of control; the T/C (dose: 100.0 mg/kg/injection, schedule: Q04DX003 (ip), vehicle: water) was 95 % of control. The T/C (dose: 200.0 mg/kg/injection, schedule: Q04DX003 (ip), vehicle: water) is 91 % of control.

Consider `O=NN(CCCl)C(=O)Nc1ccc2[nH]c3ccccc3c2c1`, for which the T/C is 101 % of control (dose: 25.0 mg/kg/injection, schedule: Q01DX009 (ip), vehicle: Klucel (hydroxypropylcellulose) (HPC)); 116 % of control (dose: 50.0 mg/kg/injection, schedule: Q01DX009 (ip), vehicle: Klucel (hydroxypropylcellulose) (HPC)); 118 % of control (dose: 100.0 mg/kg/injection, schedule: Q01DX009 (ip), vehicle: Klucel (hydroxypropylcellulose) (HPC)); 91 % of control (dose: 177.0 mg/kg/injection, schedule: Q01DX009 (ip), vehicle: saline with Tween-80); 123 % of control (dose: 200.0 mg/kg/injection, schedule: Q01DX009 (ip), vehicle: Klucel (hydroxypropylcellulose) (HPC)); 104 % of control under setting [4].

As to `C=C(NC(C)=O)C(=O)O`, the T/C reads like this: under setting [8], 96 % of control; under setting [1], 103 % of control; (dose: 200.0 mg/kg/injection, schedule: Q01DX001 (ip), vehicle: saline with Tween-80) 97 % of control; under setting [2], 89 % of control; (dose: 400.0 mg/kg/injection, schedule: Q01DX001 (ip), vehicle: saline with Tween-80) 97 % of control.

Turning to `CCCCCCCCOC(=O)Nc1ccc(S(=O)(=O)N(CCC)CCC)cc1`, the T/C by setting is: under setting [9], 96 % of control; under setting [10], 92 % of control; under setting [11], 88 % of control.

`C=CC1C[N+]2(SS(=O)(=O)O)CCC1CC2C(O)c1ccnc2ccc(OC)cc12` (stereo unspecified): the T/C by setting is: (dose: 75.0 mg/kg/injection, schedule: Q04DX003 (ip), vehicle: saline) 100 % of control; (dose: 150.0 mg/kg/injection, schedule: Q04DX003 (ip), vehicle: saline) 95 % of control.

In the case of `O=[N+]([O-])c1cccc(OCCOc2ccccc2)c1`, the T/C under setting [7] is 98 % of control, the T/C under setting [3] was 94 % of control and the T/C under setting [5] was 91 % of control.

Turning to `O=C(/C=C(\NC1CCCCC1)C(=O)c1ccccc1)c1ccccc1`, the T/C is, setting by setting: under setting [1], 87 % of control; under setting [2], 98 % of control; under setting [3], 86 % of control; under setting [4], 97 % of control; under setting [5], 86 % of control.

Consider `O=C(C=C(C(F)(F)F)C(F)(F)F)c1ccc(Cl)c2ccccc12`, for which the T/C under setting [7] is 105 % of control.

Regarding `CN1CCC(CCOCc2ccccc2)(CN2c3ccccc3Sc3ccccc32)C1` (stereo unspecified), the T/C is 106 % of control (dose: 6.25 mg/kg/injection, schedule: Q04DX003 (ip), vehicle: saline with Tween-80); 110 % of control (dose: 12.5 mg/kg/injection, schedule: Q04DX003 (ip), vehicle: saline with Tween-80); 104 % of control (dose: 25.0 mg/kg/injection, schedule: Q04DX003 (ip), vehicle: saline with Tween-80).

With `O=C1C=C(O)c2cc(Br)ccc2C1=O`, the T/C is 102 % of control under setting [9], 98 % of control under setting [10] and 98 % of control under setting [11].

For the compound `Cc1cc(N)c(O)cc1C`, under “dose: 100.0 mg/kg/injection, schedule: Q01DX009 (ip), vehicle: saline”, the T/C is 96 % of control.
